{"source": "ChEMBL document CHEMBL3045684", "about": "“Compatibility of traditional and novel acaricides with bumblebees (Bombus terrestris): a first laboratory assessment of toxicity and sublethal effects” (Pest Manag Sci, 2010)", "key": {"Bombus terrestris [1]": {"test_system": "Bombus terrestris", "test": "Contact toxicity against worker Bombus terrestris (bumblebee) assessed as mortality at 30 mg a.i./l applied on the dorsal thorax measured up to 1 week", "assay_type": "functional, organism-based"}, "Bombus terrestris [2]": {"test_system": "Bombus terrestris", "test": "Toxicity against worker Bombus terrestris (bumblebee) assessed as mortality at 30 mg a.i./l, po administered through pollen for 11 weeks measured everyday for 3 days followed by once a week for 11 weeks", "assay_type": "functional"}, "Bombus terrestris [3]": {"test_system": "Bombus terrestris", "test": "Toxicity against worker Bombus terrestris (bumblebee) assessed as mortality at 30 mg a.i./l, po administered through sugar water for 11 weeks measured everyday for 3 days followed by once a week for 11 weeks", "assay_type": "functional"}, "Bombus terrestris [4]": {"test_system": "Bombus terrestris", "test": "Contact toxicity against worker Bombus terrestris (bumblebee) assessed as mortality at 30 mg a.i./l applied on the dorsal thorax for 11 weeks measured everyday for 3 days followed by once a week for 11 weeks", "assay_type": "functional"}, "Bombus terrestris [5]": {"test_system": "Bombus terrestris", "test": "Toxicity against po dosed worker Bombus terrestris (bumblebee) administered through sugar water for 11 weeks measured everyday for 3 days followed by once a week for 11 weeks", "assay_type": "functional"}, "Bombus terrestris [6]": {"test_system": "Bombus terrestris", "test": "Toxicity against worker Bombus terrestris (bumblebee) assessed as mortality at 30 mg a.i./l, po administered through pollen measured after 7 weeks", "assay_type": "functional", "conditions": "1176 h"}, "Bombus terrestris [7]": {"test_system": "Bombus terrestris", "test": "Toxicity against worker Bombus terrestris (bumblebee) assessed as reduction in reproduction at 30 mg a.i./l, po administered through pollen for 11 weeks measured once a week for 11 weeks", "assay_type": "functional", "design": "scale not given: the % may be the effect or the level left"}, "Bombus terrestris [8]": {"test_system": "Bombus terrestris", "test": "Contact toxicity against worker Bombus terrestris (bumblebee) assessed as reduction in reproduction at 30 mg a.i./l applied on the dorsal thorax for 11 weeks measured once a week for 11 weeks relative to control", "assay_type": "functional, organism-based"}}, "note": "Active and inactive are the calls of the source. No cut-off for these calls is given here.", "data": [{"smiles": "Cc1c(COC(=O)[C@@H]2[C@H](/C=C(\\Cl)C(F)(F)F)C2(C)C)cccc1-c1ccccc1", "note": "(relative stereo) [BIFENTHRIN]", "values": [{"measurement": "Activity", "setting": "Bombus terrestris [1]", "value": "Active"}, {"measurement": "mortality at 30 µg/mL", "setting": "Bombus terrestris [2]", "value": 90, "unit": "%"}, {"measurement": "mortality at 30 µg/mL", "setting": "Bombus terrestris [3]", "value": 50, "unit": "%"}, {"measurement": "mortality at 30 µg/mL", "setting": "Bombus terrestris [4]", "value": 100, "unit": "%"}, {"measurement": "LC50", "setting": "Bombus terrestris [5]", "value": 0.36, "unit": "mgAi/L"}, {"measurement": "NOAEL", "setting": "Bombus terrestris [5]", "value": 0.03, "unit": "mgAi/L"}, {"measurement": "mortality at 30 µg/mL", "setting": "Bombus terrestris [6]", "value": 100, "unit": "%"}, {"measurement": "Activity", "setting": "Bombus terrestris [7]", "value": 50, "unit": "%"}, {"measurement": "Activity", "setting": "Bombus terrestris [8]", "value": "Active"}]}]}
